According to EP2198709A1, “Method for treating resistant animal pests” (Bayer CropScience AG, priority 2008, dated 2010):

Legend:
Assay type in all cases: in vivo
[1] = system: Nilaparvata lugens; experiment: Field trial on rice plants, spray, against neonicotinoid-resistant brown planthoppers (Thailand); conditions: 50 g ai/ha/m CH, both SL 100
From the text: In Banglane (Thailand) wurden Reispflanzen, die stark mit bekanntermaßen Neonikotinoyl-resistenten Braunrückigen Reiszikaden (Nilaparvata lugens) infiziert waren, jeweils zwei Mal im Abstand von 14 Tagen mit der Verbindung 1-5 (SL 100, 50 g ai/ha/m CH (g aktive Substanz/ha/m CH, CH = Laubwand-Höhe) bzw. mit Imidacloprid (SL 100, 50 g ai/ha/m CH) besprüht. Zu verschiedenen Zeitpunkten nach der ersten bzw. zweiten Behandlung (DAA = Tage nach 1. Behandlung, DAB = Tage nach zweiter Behandlung) wurde die Wirksamkeit (in % Abbott: Verhältnis der Anzahl Tier auf behandelter Pflanze / Fläche zur Anzahl Tiere auf Kontrolle) der beiden Substanzen gegen Nilaparvata lugens bestimmt.

[2] = system: Nymphen von Bemisia tabaci; experiment: Field trial on pepper plants, spray, against nymphs of neonicotinoid-resistant whiteflies (Almeria); conditions: sprayed 3x, 150 g ai/ha/m CH, I-5 SL 200, Imidacloprid OD 200
From the text: In Almeria (Südspanien) wurden Paprikapflanzen, die sehr stark mit Nymphen von bekanntermaßen Neonikotinoyl-resistenten Weißen Fliegen (Bemisia tabaci) infiziert waren, jeweils drei Mal im Abstand von 9 und 12 Tagen mit der Verbindung I-5 (SL 200, 150 g ai/ha/m CH (g aktive Substanz/ha/m CH, CH = Laubwand-Höhe) bzw. mit Imidacloprid (OD 200, 150 g ai/ha/m CH) besprüht. Zu verschiedenen Zeitpunkten nach der dritten Behandlung (DAC = Tage nach 3. Behandlung) wurde die Wirksamkeit (in % Abbott: Verhältnis der Anzahl Nymphen auf behandelter Pflanze / Fläche zur Anzahl Nymphen auf Kontrolle) der beiden Substanzen gegen Nymphen von Bemisia tabaci in bestimmt.

[3] = system: Nymphen von Bemisia tabaci; experiment: Field trial on cotton plants, spray, against nymphs of neonicotinoid-resistant whiteflies (Brenes); conditions: sprayed 2x, 150 g ai/ha/m CH, I-5 SL 100, Imidacloprid SL 200
From the text: In Brenes (Spanien) wurden Baumwollpflanzen, die stark mit Nymphen von bekanntermaßen Neonikotinoyl-resistenten Weißen Fliegen (Bemisia tabaci) infiziert waren, jeweils zwei Mal im Abstand von 13 Tagen mit der Verbindung I-5 (SL 100, 150 g ai/ha/m CH (g aktive Substanz/ha/m CH, CH = Laubwand-Höhe) bzw. mit Imidacloprid (SL 200, 150 g ai/ha/m CH) besprüht. Zu verschiedenen Zeitpunkten nach der ersten bzw. zweiten Behandlung (DAA = Tage nach 1. Behandlung, DAB = Tage nach zweiter Behandlung) wurde die Wirksamkeit (in % Abbott: Verhältnis der Anzahl Nymphen auf behandelter Pflanze / Fläche zur Anzahl Nymphen auf Kontrolle) der beiden Substanzen gegen Nymphen von Bemisia tabaci in bestimmt.

[4] = 7 DAC (days after 3rd treatment)

Row | Structure (SMILES) | Effizienz ([1]; 1 DAA, sprayed) | Effizienz ([1]; 3 DAA, sprayed) | Effizienz ([1]; 5 DAA, sprayed) | Effizienz ([1]; 7 DAA, sprayed) | Effizienz ([1]; 7 DAB, sprayed 2x) | Effizienz ([1]; 14 DAA, sprayed) | Effizienz ([1]; 14 DAB, sprayed 2x) | Effizienz [2, 4] | Effizienz ([2]; 14 DAC) | Effizienz ([2]; 21 DAC) | Effizienz ([2]; 28 DAC) | Effizienz ([3]; 13 DAB) | Effizienz ([3]; 15 DAB) | Effizienz ([3]; 25 DAB) | Effizienz ([3]; 36 DAB)
1 | O=[N+]([O-])NC1=NCCN1Cc1ccc(Cl)nc1 [Imidacloprid] | 19,6 % Abbott | 24,9 % Abbott | 36,5 % Abbott | 26,6 % Abbott | 19,8 % Abbott | 17,8 % Abbott | 26,4 % Abbott | 76,7 % Abbott | 75,3 % Abbott | 75,1 % Abbott | 1,3 % Abbott | 60 % Abbott | 56,9 % Abbott | 42,1 % Abbott | 24,3 % Abbott
2 | O=C1C=C(N(Cc2ccc(Cl)nc2)CC(F)F)CO1 [Verbindung I-5, 4-{[(6-Chlorpyrid-3-yl)methyl](2,2-difluorethyl)amino}furan-2(5H)-on] | 19 % Abbott | 39 % Abbott | 66,8 % Abbott | 70,3 % Abbott | 69,5 % Abbott | 65,7 % Abbott | 55,9 % Abbott | 99,2 % Abbott | 98,5 % Abbott | 97,4 % Abbott | 84,3 % Abbott | 78,9 % Abbott | 63,5 % Abbott | 77,8 % Abbott | 70,8 % Abbott
